Results reported in patent publication EP0527889B1, “QUINOLIZINONE TYPE COMPOUNDS” (priority 1990, dated 1991).
Values after ≈ are worked out from the molar mass of the structure shown. Structures can show the parent of a compound that is named as a salt.

Legend:
Test in all cases: In vitro antibacterial activity, MIC by agar dilution
Type in all cases: cell-based
Conditions in all cases: BHI agar, 35-37°C, 20-24 hours, unit assumed
[1] = tested on: Pseudomonas aeruginosa K799/WT
Protocol: (§1) Each plate was inoculated with 1:100 (or 1:10 for slow growing strains, primarily Micrococcus and Streptococcus) dilutions of up to 32 different microorganisms, using a Steers replicator block calibrated to deliver approximately 10^4 colony forming units (CFUs). The inoculated plates were incubated at from about 35°C to about 37°C for approximately 20-24 hours. In addition, a control plate using BHI agar containing no test compound was prepared and incubated at the beginning and at the end of each test. Ciprofloxacin was used as the control antibiotic.
(§2) The MIC was defined as the lowest concentration of test compound yielding no growth (a slight haze or sparsely isolated colonies at the inoculum spot) as compared to the growth control containing no test compound.

Escherichia coli JUHL = tested on: Escherichia coli JUHL
Protocol: as §1, §2

Escherichia coli SS = tested on: Escherichia coli SS
Protocol: as §1, §2

[2] = tested on: Pseudomonas aeruginosa BMH10
Protocol: as §1, §2

[3] = tested on: Enterococcus faecium ATCC 8043
Protocol: as §1, §2

[4] = tested on: Staphylococcus epidermidis 3519
Protocol: as §1, §2

Pseudomonas cepacia 296I = tested on: Pseudomonas cepacia 296I
Protocol: as §1, §2

[5] = tested on: Staphylococcus aureus ATCC 6538P
Protocol: as §1, §2

[6] = tested on: Pseudomonas aeruginosa A5007
Protocol: as §1, §2

Escherichia coli KNK 437 = tested on: Escherichia coli KNK 437
Protocol: as §1, §2

[7] = tested on: Streptococcus pyrogenes 2548 INDUC
Protocol: as §1, §2

[8] = tested on: Staphylococcus aureus 642A
Protocol: as §1, §2

[9] = tested on: Micrococcus luteus ATCC 4698
Protocol: as §1, §2

[10] = tested on: Acinetobacter calcoaceticus CMX 669
Protocol: as §1, §2

[11] = tested on: Staphylococcus aureus A5177
Protocol: as §1, §2

[12] = tested on: Klebsiella pneumoniae ATCC 8045
Protocol: as §1, §2

[13] = tested on: Pseudomonas aeruginosa K799/61
Protocol: as §1, §2

[14] = tested on: Streptococcus bovis A5169
Protocol: as §1, §2

[15] = tested on: Enterobacter aerogenes ATCC 13048
Protocol: as §1, §2

[16] = tested on: Providencia stuartii CMX 640
Protocol: as §1, §2

[17] = tested on: Streptococcus agalactaciae CMX 508
Protocol: as §1, §2

[18] = tested on: Staphylococcus aureus CMX 553
Protocol: as §1, §2

[19] = tested on: Staphylococcus aureus NCTC 10649
Protocol: as §1, §2

Escherichia coli DC-2 = tested on: Escherichia coli DC-2
Protocol: as §1, §2

[20] = tested on: Streptococcus pyrogenes EES61
Protocol: as §1, §2

[21] = tested on: Micrococcus luteus ATCC 9341
Protocol: as §1, §2

[22] = tested on: Streptococcus pyrogenes CONST
Protocol: as §1, §2

[23] = tested on: Staphylococcus aureus A-5278
Protocol: as §1, §2

[24] = tested on: Staphylococcus aureus 1775
Protocol: as §1, §2

Escherichia coli H560 = tested on: Escherichia coli H560
Protocol: as §1, §2

[25] = tested on: Pseudomonas aeruginosa 2862
Protocol: as §1, §2

SMILES	MIC values [1] [µg/mL]	MIC values (Escherichia coli JUHL) [µg/mL]	MIC values (Escherichia coli SS) [µg/mL]	MIC values [2] [µg/mL]	MIC values [3] [µg/mL]	MIC values [4] [µg/mL]	MIC values (Pseudomonas cepacia 296I) [µg/mL]	MIC values [5] [µg/mL]	MIC values [6] [µg/mL]	MIC values (Escherichia coli KNK 437) [µg/mL]	MIC values [7] [µg/mL]	MIC values [9] [µg/mL]	MIC values [10] [µg/mL]	MIC values [11] [µg/mL]	MIC values [12] [µg/mL]	MIC values [13] [µg/mL]	MIC values [14] [µg/mL]	MIC values [15] [µg/mL]	MIC values [16] [µg/mL]	MIC values [17] [µg/mL]	also measured
CN1CCN(c2nc3c(-c4ccc(F)cc4)cc(C(=O)O)c(=O)n3cc2F)CC1 [Example 1, 3-Fluoro-9-(4-fluorophenyl)-2-(4-methylpiperazin-1-yl)-6H-6-oxo-pyrido[1,2-a]pyrimidine-7-carboxylic acid]	3.1 (≈ 7.74 µM)	0.39 (≈ 0.974 µM)	< 0.05	6.2 (≈ 15.5 µM)	25 (≈ 62.4 µM)	0.78 (≈ 1.95 µM)	25 (≈ 62.4 µM)	0.39 (≈ 0.974 µM)	6.2 (≈ 15.5 µM)	6.2 (≈ 15.5 µM)	3.1 (≈ 7.74 µM)	25 (≈ 62.4 µM)	0.78 (≈ 1.95 µM)	0.78 (≈ 1.95 µM)	0.2 (≈ 0.5 µM)	0.39 (≈ 0.974 µM)	25 (≈ 62.4 µM)	0.78 (≈ 1.95 µM)	25 (≈ 62.4 µM)	12.5 (≈ 31.2 µM)	MIC values [8]: 0.78 µg/mL (≈ 1.95 µM); MIC values [18]: 0.78 µg/mL (≈ 1.95 µM); MIC values [19]: 0.39 µg/mL (≈ 0.974 µM); MIC values (Escherichia coli DC-2): 12.5 µg/mL (≈ 31.2 µM); MIC values [20]: 6.2 µg/mL (≈ 15.5 µM); MIC values [21]: 50 µg/mL (≈ 125 µM); MIC values [22]: 6.2 µg/mL (≈ 15.5 µM)
CN1CCN(c2nc3c(-c4ccc(F)cc4)cc(C(=O)O)c(=O)n3cc2F)CC1 [Example 2, 3-Fluoro-9-(4-fluorophenyl)-2-(4-methylpiperazin-1-yl)-6H-6-oxo-pyrido[1,2-a]pyrimidine-7-carboxylic acid]	3.1 (≈ 7.74 µM)	0.39 (≈ 0.974 µM)	0.05 (≈ 0.125 µM)	6.2 (≈ 15.5 µM)	25 (≈ 62.4 µM)	0.78 (≈ 1.95 µM)	25 (≈ 62.4 µM)	0.39 (≈ 0.974 µM)	6.2 (≈ 15.5 µM)	6.2 (≈ 15.5 µM)	3.1 (≈ 7.74 µM)	25 (≈ 62.4 µM)	0.78 (≈ 1.95 µM)	0.78 (≈ 1.95 µM)	0.2 (≈ 0.5 µM)	0.39 (≈ 0.974 µM)	25 (≈ 62.4 µM)	0.78 (≈ 1.95 µM)	25 (≈ 62.4 µM)	12.5 (≈ 31.2 µM)	MIC values [23]: 0.78 µg/mL (≈ 1.95 µM); MIC values [8]: 0.78 µg/mL (≈ 1.95 µM); MIC values [18]: 0.78 µg/mL (≈ 1.95 µM); MIC values [19]: 0.39 µg/mL (≈ 0.974 µM); MIC values (Escherichia coli DC-2): 12.5 µg/mL (≈ 31.2 µM); MIC values [24]: 25 µg/mL (≈ 62.4 µM); MIC values [20]: 6.2 µg/mL (≈ 15.5 µM); MIC values [21]: 50 µg/mL (≈ 125 µM); MIC values (Escherichia coli H560): 0.39 µg/mL (≈ 0.974 µM); MIC values [22]: 6.2 µg/mL (≈ 15.5 µM)
CCc1cc(C(=O)O)c(=O)n2ccc(N3CCC(N)C3)cc12.Cl (stereo not drawn) [Example 62, 8-(3-Amino-1-pyrrolidinyl)-1-ethyl-4H-quinolizin-4-one-3-carboxylic acid hydrochloride]	6.2	3.1	0.39	6.2	50	12.5	3.1	3.1	6.2	25	25	12.5	0.78	12.5	3.1	0.05	25	3.1	25	25	MIC values [8]: 6.2 µg/mL; MIC values [18]: 12.5 µg/mL; MIC values [19]: 6.2 µg/mL; MIC values (Escherichia coli DC-2): 25 µg/mL; MIC values [20]: 25 µg/mL; MIC values [21]: 25 µg/mL; MIC values (Escherichia coli H560): 3.1 µg/mL; MIC values [22]: 25 µg/mL
CCc1cc(C(=O)O)c(=O)n2ccc(N3CCNC(C)C3)cc12.Cl (stereo not drawn) [Example 64, 1-Ethyl-8-(3-methyl-1-piperazinyl)-4H-quinolizin-4-one-3-carboxylic acid hydrochloride]	25	6.2	1.56	25	100	50	100	25	50	100	50	25	50	50	6.2	6.2	25	6.2	> 100	50	MIC values [18]: 50 µg/mL; MIC values (Escherichia coli DC-2): 100 µg/mL; MIC values [20]: 50 µg/mL; MIC values [21]: 25 µg/mL; MIC values (Escherichia coli H560): 12.5 µg/mL; MIC values [22]: 50 µg/mL
CCc1cc(C(=O)O)c(=O)n2ccc(N3CCN(C)CC3)cc12.Cl [Example 65, 1-Ethyl-8-(4-methylpiperazin-1-yl)-4H-quinolizin-4-one-3-carboxylic acid hydrochloride]	25	12.5	1.56	25	50	25	100	12.5	25	100	50	25	25	25	6.2	25	100	12.5	> 100	100	MIC values [18]: 50 µg/mL; MIC values (Escherichia coli DC-2): > 100 µg/mL; MIC values [20]: 100 µg/mL; MIC values [21]: 25 µg/mL; MIC values [22]: 50 µg/mL
NC1CCN(c2nc3c(C4CC4)cc(C(=O)O)c(=O)n3cc2F)C1 (stereo not drawn) [Example 158, 2-(3-Aminopyrrolidin-1-yl)-9-cyclopropyl-3-fluoro-6H-6-oxo-pyrido[1,2-a]pyrimidine-7-carboxylic acid]	–	0.02 (≈ 0.0602 µM)	0.01 (≈ 0.0301 µM)	–	–	0.39 (≈ 1.17 µM)	–	–	0.2 (≈ 0.602 µM)	–	0.78 (≈ 2.35 µM)	–	–	–	0.05 (≈ 0.15 µM)	–	6.2 (≈ 18.7 µM)	0.1 (≈ 0.301 µM)	3.1 (≈ 9.33 µM)	–	MIC values [23]: 0.78 µg/mL (≈ 2.35 µM); MIC values [8]: 0.2 µg/mL (≈ 0.602 µM); MIC values [24]: 100 µg/mL (≈ 301 µM); MIC values [25]: 50 µg/mL (≈ 150 µM)
NC1CCN(c2nc3c(-c4ccc(F)cc4F)cc(C(=O)O)c(=O)n3cc2F)C1 (stereo not drawn) [Example 162, 2-(3-Aminopyrrolidin-1-yl)-9-(2,4-difluorophenyl)-3-fluoro-6H-6-oxopyrido[1,2-a]pyrimidine-7-carboxylic acid trifluoroacetic acid salt]	–	–	–	–	–	–	–	–	–	–	–	–	–	–	–	–	–	–	–	–	MIC values ([1]; trifluoroacetic acid salt): 0.39 µg/mL; MIC values ([4]; trifluoroacetic acid salt): 0.2 µg/mL; MIC values (Pseudomonas cepacia 296I; trifluoroacetic acid salt): 6.2 µg/mL; MIC values ([5]; trifluoroacetic acid salt): 0.1 µg/mL; MIC values ([6]; trifluoroacetic acid salt): 0.39 µg/mL; MIC values (Escherichia coli KNK 437; trifluoroacetic acid salt): 0.39 µg/mL; MIC values ([7]; trifluoroacetic acid salt): 0.2 µg/mL; MIC values ([8]; trifluoroacetic acid salt): 0.2 µg/mL; MIC values ([10]; trifluoroacetic acid salt): 0.1 µg/mL; MIC values ([12]; trifluoroacetic acid salt): 0.02 µg/mL; MIC values ([17]; trifluoroacetic acid salt): 0.78 µg/mL; MIC values ([18]; trifluoroacetic acid salt): 0.2 µg/mL; MIC values ([19]; trifluoroacetic acid salt): 0.1 µg/mL; MIC values (Escherichia coli DC-2; trifluoroacetic acid salt): 0.39 µg/mL; MIC values ([24]; trifluoroacetic acid salt): > 100 µg/mL; MIC values ([21]; trifluoroacetic acid salt): 6.2 µg/mL
O=C(O)c1cc(C2CC2)c2nc(N3CCOCC3)c(F)cn2c1=O [Example 165, 9-Cyclopropyl-3-fluoro-2-(morpholin-1-yl)-6H-6-oxo-pyrido[1,2-a]pyrimidine-7-carboxylic acid]	25 (≈ 75 µM)	3.1 (≈ 9.3 µM)	0.2 (≈ 0.6 µM)	50 (≈ 150 µM)	> 100	6.2 (≈ 18.6 µM)	25 (≈ 75 µM)	6.2 (≈ 18.6 µM)	25 (≈ 75 µM)	> 100	> 100	> 100	6.2 (≈ 18.6 µM)	6.2 (≈ 18.6 µM)	0.39 (≈ 1.17 µM)	3.1 (≈ 9.3 µM)	> 100	3.1 (≈ 9.3 µM)	> 100	> 100	MIC values [23]: 6.2 µg/mL (≈ 18.6 µM); MIC values [8]: 6.2 µg/mL (≈ 18.6 µM); MIC values [18]: 6.2 µg/mL (≈ 18.6 µM); MIC values [19]: 6.2 µg/mL (≈ 18.6 µM); MIC values (Escherichia coli DC-2): > 100 µg/mL; MIC values [24]: > 100 µg/mL; MIC values [20]: > 100 µg/mL; MIC values [21]: > 100 µg/mL; MIC values (Escherichia coli H560): 3.1 µg/mL (≈ 9.3 µM); MIC values [22]: > 100 µg/mL
